Measured values: ChEMBL document CHEMBL1201862, “PubChem BioAssay data set” (2004)
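Method: 48-hour compound exposure of cells in 96-well plates, five concentrations, linear interpolation of endpoints. GI50 = concentration required for 50% inhibition of growth.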 Activity calls are given as the source filed them. Cut-off read from the data, not from the text of the source: active = GI50 up to about 1.1 µM and inactive = higher.

Columns and labels:
Test in all cases: NCI anticancer screen, dose series, 48 h
RXF 393 = test system: RXF 393
SNB-75 = test system: SNB-75
SK-MEL-2 = test system: SK-MEL-2
HOP-62 = test system: HOP-62
RPMI-8226 = test system: RPMI-8226
NCI-H23 = test system: NCI-H23
SW-620 = test system: SW-620
OVCAR-4 = test system: OVCAR-4
SR = test system: SR
786-0 = test system: 786-0
MCF7 = test system: MCF7
U-251 = test system: U-251
ACHN = test system: ACHN
K562 = test system: K562
SK-OV-3 = test system: SK-OV-3
OVCAR-5 = test system: OVCAR-5
SK-MEL-5 = test system: SK-MEL-5
NCI-H460 = test system: NCI-H460
CAKI-1 = test system: CAKI-1
SK-MEL-28 = test system: SK-MEL-28
T47D = test system: T47D
A549 = test system: A549
NCI/ADR-RES = test system: NCI/ADR-RES
SF-268 = test system: SF-268
OVCAR-8 = test system: OVCAR-8
HOP-92 = test system: HOP-92
IGROV-1 = test system: IGROV-1
TK-10 = test system: TK-10
M14 = test system: M14
SF-539 = test system: SF-539
HL-60 = test system: HL-60
MDA-MB-231 = test system: MDA-MB-231
A498 = test system: A498
HCT-15 = test system: HCT-15
Hs-578T = test system: Hs-578T
SF-295 = test system: SF-295
NCI-H522 = test system: NCI-H522
HCC 2998 = test system: HCC 2998
OVCAR-3 = test system: OVCAR-3
CCRF-CEM = test system: CCRF-CEM
HCT-116 = test system: HCT-116
UACC-257 = test system: UACC-257
SNB-19 = test system: SNB-19

With `O=CC(O)C(O)C(O)C(O)COP(=O)(O)Cc1ccccc1` (configuration not stated) the GI50 (RXF 393) was > 10 µM (inactive), the GI50 (SNB-75) was > 10 µM (inactive) and the GI50 (SK-MEL-2) was > 10 µM (inactive). The GI50 (HOP-62) was > 10 µM (inactive), the GI50 (RPMI-8226) was > 10 µM (inactive) and the GI50 (NCI-H23) was > 10 µM (inactive). The GI50 (SW-620) was > 10 µM (inactive), the GI50 (OVCAR-4) was > 10 µM (inactive) and the GI50 (SR) was > 10 µM (inactive). The GI50 (786-0) was > 10 µM (inactive), the GI50 (MCF7) was > 10 µM (inactive) and the GI50 (U-251) was > 10 µM (inactive). For the same compound, the GI50 (ACHN) was > 10 µM (inactive), the GI50 (K562) was > 10 µM (inactive) and the GI50 (SK-OV-3) was > 10 µM (inactive). The GI50 (OVCAR-5) was > 10 µM (inactive), the GI50 (SK-MEL-5) was > 10 µM (inactive) and the GI50 (NCI-H460) was > 10 µM (inactive). The GI50 (CAKI-1) was > 10 µM (inactive), the GI50 (SK-MEL-28) was > 10 µM (inactive) and the GI50 (T47D) was > 10 µM (inactive). The GI50 (A549) was > 10 µM (inactive), the GI50 (NCI/ADR-RES) was > 10 µM (inactive) and the GI50 (SF-268) was > 10 µM (inactive).
For `COc1ccc2cc1Oc1ccc(cc1)C[C@@H]1c3cc(c(OC)cc3CCN1C)Oc1c(OC)c(OC)cc3c1[C@H](C2)N(C)CC3` [ISOTETRANDRINE], the GI50 (RXF 393) was 1.44 µM (inactive), the GI50 (OVCAR-8) was 17.9 µM (inactive) and the GI50 (SNB-75) was 12.4 µM (inactive). For the same compound, the GI50 (HOP-92) was > 10 µM (inactive), the GI50 (IGROV-1) was 20.7 µM (inactive) and the GI50 (TK-10) was 19.1 µM (inactive). The GI50 (NCI-H23) was 15.8 µM (inactive), the GI50 (M14) was 11.1 µM (inactive) and the GI50 (OVCAR-4) was 17.9 µM (inactive). The GI50 (SF-539) was 8.89 µM (inactive), the GI50 (SR) was 2.41 µM (inactive) and the GI50 (HL-60) was 10.8 µM (inactive). For the same compound, the GI50 (MDA-MB-231) was 14.7 µM (inactive), the GI50 (A498) was 19.7 µM (inactive) and the GI50 (786-0) was 24.7 µM (inactive). The GI50 (MCF7) was 14 µM (inactive), the GI50 (U-251) was 22.2 µM (inactive) and the GI50 (HCT-15) was 11.2 µM. The GI50 (ACHN) was 13.4 µM (inactive), the GI50 (Hs-578T) was 16.7 µM (inactive) and the GI50 (K562) was 4.16 µM (inactive). The GI50 (SK-OV-3) was 40.2 µM (inactive), the GI50 (SF-295) was 16.3 µM (inactive) and the GI50 (NCI-H522) was 12.6 µM (inactive). For the same compound, the GI50 (HCC 2998) was 12.7 µM (inactive), the GI50 (SK-MEL-5) was 11.8 µM (inactive) and the GI50 (NCI-H460) was 15.2 µM (inactive). For the same compound, the GI50 (OVCAR-3) was 18.2 µM (inactive), the GI50 (CCRF-CEM) was 16.9 µM (inactive) and the GI50 (HCT-116) was 17.7 µM (inactive). For the same compound, the GI50 (UACC-257) was 11.3 µM (inactive), the GI50 (SNB-19) was 20.4 µM (inactive) and the GI50 (SF-268) was 21.7 µM (inactive).
